Where “and” joins values, the source holds several entries; their conditions need not be identical. Equal values may be shown once.
Key:
[1] = system: IL-15; test: Ileum and liver lesion histology, BrdUrd and IL-15 expression after JBT 3002 and CPT-11; format: in vivo, mouse; settings: mouse, in vivo
Experimental: BALB/c mice were injected with CT-26 colon cancer cells into the spleen. […] Four days after the last injection of CPT-11, some mice were killed and their ileum was harvested and prepared for histology, immunohistochemistry, and molecular biology analyses.

[2] = system: peritoneal exudate macrophages (PEM); test: Nitrite (NO) production by mouse peritoneal exudate macrophages; format: cell-based; settings: available to 1×10^5 PEM
Experimental: Peritoneal exudate macrophages (PEM) were collected by peritoneal lavage from mice given an intraperitoneal injection of 2.0 ml of thioglycollate broth (Baltimore Biological Laboratory, Cockeysville, Md.) 4 days before harvest (Dong Z, O'Brian C A, et al. J Leukoc Biol (1993) 53:53-60; Xie K, Huang S, et al. Cancer Res (1995) 55:3123-31). The PEM were washed in Ca^+2- an Mg^2+-free HBSS and resuspended in serum-free medium: 1×10^5 cells were plated into each 38-mm^2 well of 96-2311 culture plates (Falcon Plastics, Oxnard, Calif.). After a 90-min incubation, the nonadherent cells were removed by washing with medium. More than 98% of the adherent cell populations were macrophages according to morphology and phagocytic criteria (Saiki I, et al. J Immunol (1985) 135:684-8). […] After treatment, the cultures were washed and macrophage-mediated cytotoxicity against different tumor targets was determined. […]
Nitrite accumulation in the culture supernatant was measured in a colorimetric assay as described previously (Ding A E, et al. J Immunol (1988) 141:2407-12). […] The mixtures were incubated 10 min with shaking, and A540 was measured with the use of a microplate reader (Model 3550; Bio-Rad Corp., San Francisco, Calif.). The concentration of nitrite was determined by comparing it with a standard solution of sodium nitrite in medium.

[3] = system: tumor cells; test: Macrophage-mediated tumor cytotoxicity, target cells not named; format: cell-based; settings: available in MLV to 1×10^5 cells
Experimental: Cytotoxicity was assayed by measuring release of radioactivity from target cell DNA as described previously (Dong Z, et al. J Exp Med (1993) 177:1071-7). Briefly, tumor target cells in their exponential growth phase were incubated in medium containing 0.25 μCi/ml of [^3H]TdR (sp. Act. 2 Ci/mmol) (ICN Biomedicals, Inc., Irvine, Calif.) for 24 h. The cells were washed three times with HBSS to remove unbound radioactivity and then harvested by trypsinization (0.25% trypsin in 0.02% EDTA), washed, and resuspended in medium. Cells were plated (at 1×10^4/well) into wells containing control or test macrophages to achieve an E/T cell ratio of 10:1. At this density, macrophages incubated in medium (control) were not cytotoxic to neoplastic cells (Weinstein SL, et al. Proc Natl Acad Sci USA (1991) 88:4148-52; Dong Z, et al. JLeukoc Biol (1993) 53:53-60). […] The lysate was harvested with harvester 96 (Tomtec, Orange, Conn.) and counted for residual radioactivity in a liquid scintillation counter. Macrophage-mediated cytotoxicity was calculated as follows: […]
Efficient activation of macrophages by LPS requires priming by IFN-γ (Saiki I, et al. J Immunol (1985) 135:684-8). […] Tumor cytotoxicity was measured 72 h after the addition of radiolabeled tumor cells to the activated macrophages. […]

[4] = system: L3.6pl human pancreatic tumors; test: Therapy of L3.6pl human pancreatic tumors in nude mice; format: in vivo, mouse; settings: CPT-11 100 mg/kg i.p. once a week +/− oral JBT 3002 (tablet) 0.05 mcg/dose
Experimental: Table 19 (A, B, C). Therapy of human pancreatic carcinoma liver metastasis. The pancreas of nude mice were injected with 1×10^6 viable human pancreatic cancer L3.6pl cells. […] This regimen was repeated on a weekly basis for 3 weeks. The mice were killed. Pancreatic tumors, liver metastases, and lymph node metastasis were quantified.

N-hexadecanol-S-[2(R)-3-diodecanoyloxypropyl]-L-cysteinyl-L-alanyl-D-isoglutaminyl-glycyl-taurine sodium salt [JBT3002]
expression of IL-15 in the ileum [1]: restores or augments this expression
minimal concentration of JBT3002 required to generate significant levels of NO (20 μM) [2]: 0.12 to 0.15 ng
minimal concentration of JBT3002 for significant activation of tumoricidal properties in PEM [3]: 1.5 ng
Incidence LN met ([4]; 31 days): 7/10
Incidence WT/PC ([4]; 31 days): 3/10
Incidence liver met ([4]; 31 days): 2/9
Tumor weight, Average ([4]; 31 days): 706.22 mg
Tumor weight, Max ([4]; 31 days): 981 mg
Tumor weight, Median ([4]; 31 days): 733 mg
Tumor weight, Min ([4]; 31 days): 362 mg
tumor weight (range) ([4]; 31 days): (362-981) mg
Tumor weight, single animals ([4]; 31 days after tumor cell injection, sodium salt): 862 mg and 871 mg and 981 mg and 621 mg and 362 mg and 733 mg and 559 mg and 820 mg and 547 mg

Source: patent US20030017976A1, “Therapeutic properties of liposome-encapsulated immunomodulators” (priority 1998, published 2003)
